Experimental findings from ChEMBL document CHEMBL1201862, “PubChem BioAssay data set” (2004) are described below.

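Each compound was tested at five concentrations against cells in 96-well plates for 48 hours. Abbreviation: GI50, concentration required for 50% inhibition of growth.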 Calls of active or inactive are those of the source. Cut-off read from the data, not from the text of the source: active = GI50 up to about 1.1 µM and inactive = higher.

Among the test systems are A549; ACHN; CCRF-CEM; EKVX; IGROV-1; K562; MCF7; OVCAR-4; PC-3; RPMI-8226; SK-OV-3; SR; TK-10; U-251; UACC-257; UO-31; HCC 2998; HOP-92; RXF 393.
Holding throughout (test): NCI-60 cell line screen, 48 h

Turning to `CC(=O)Oc1cc2oc(=O)cc(C)c2cc1OC(C)=O`, the GI50 is 37.3 µM (inactive) in the assay on A549; 42.2 µM (inactive) in the assay with ACHN; 16.7 µM (inactive) in the assay on CCRF-CEM; 52.5 µM (inactive) with EKVX; 27.9 µM (inactive) with IGROV-1; 55.7 µM (inactive) in the assay on K562. The GI50 in the assay on MCF7 is 38.8 µM (inactive); in the assay on OVCAR-4, 85.7 µM (inactive); in the assay on PC-3, 84.9 µM (inactive); with RPMI-8226 it was 45.7 µM (inactive); in the assay with SK-OV-3, > 100 µM (inactive); with SR, 39.6 µM (inactive). The GI50 with TK-10 is 44.5 µM (inactive); in the assay with U-251, 51.1 µM (inactive); in the assay on UACC-257, 48.9 µM (inactive); in the assay on UO-31 it was 24.6 µM (inactive).

In the case of `Cc1ccccc1C(=O)Oc1ccc(OCc2ccccc2)cc1`, the GI50 in the assay on A549 is 35.2 µM (inactive); in the assay with ACHN it was 9.18 µM (inactive); with CCRF-CEM it was 22.2 µM (inactive); in the assay on EKVX, > 100 µM (inactive); in the assay on HCC 2998, 35.9 µM (inactive); in the assay on HOP-92 it was > 100 µM (inactive). The GI50 with IGROV-1 is > 100 µM (inactive); with K562 it was 47.6 µM (inactive); in the assay with OVCAR-4, > 100 µM (inactive); with RPMI-8226, 25.6 µM (inactive); with RXF 393 it was 39.1 µM (inactive); in the assay with SK-OV-3 it was > 100 µM (inactive). Also, the GI50 with SR is 19.1 µM (inactive); with TK-10, > 100 µM (inactive); with U-251 it was > 100 µM (inactive); with UACC-257 it was 95.7 µM (inactive); in the assay with UO-31, 37.2 µM (inactive).

For the molecule `c1ccc(C2SCc3nc4ccccc4n32)cc1` (stereo unspecified), the GI50 in the assay on A549 was 50.1 µM (inactive); with ACHN, 59.3 µM (inactive); with CCRF-CEM it was 76.2 µM (inactive); with EKVX it was 39.4 µM (inactive); with HCC 2998 it was 30.4 µM (inactive); in the assay on HOP-92 it was 22.2 µM (inactive). For the same molecule, the GI50 in the assay on IGROV-1 is 29.2 µM (inactive); in the assay with K562, 32.8 µM (inactive); with OVCAR-4, 66.7 µM (inactive); with RPMI-8226 it was 20.1 µM (inactive); in the assay with RXF 393, 53.2 µM (inactive); in the assay with SK-OV-3, 91.8 µM (inactive). In addition, the GI50 in the assay with SR was 25.8 µM (inactive); with TK-10 it was 52.4 µM (inactive); in the assay with U-251, 58.7 µM (inactive); in the assay with UACC-257, 27.8 µM (inactive); in the assay with UO-31, 24.6 µM (inactive).

Regarding `O=C1C=C(N2CCCC2)C=C(N2CCCC2)C1`, the GI50 in the assay with A549, in the assay on ACHN, with CCRF-CEM, in the assay with EKVX, in the assay on HCC 2998 and with HOP-92 was > 100 µM (inactive) in each case. Also, the GI50 in the assay on IGROV-1, in the assay with K562, in the assay with RPMI-8226, in the assay on RXF 393, with SK-OV-3 and in the assay on SR was > 100 µM (inactive) in each case. Further, the GI50 in the assay on TK-10, in the assay on U-251, in the assay on UACC-257 and in the assay on UO-31 was > 100 µM (inactive) throughout.

As to `Clc1ccc(-c2c(C3=NCCN3)nnn2-c2ccccc2)cc1`, the GI50 with A549 is > 100 µM (inactive); with ACHN, > 100 µM (inactive); with CCRF-CEM it was > 100 µM (inactive); with EKVX, > 100 µM (inactive); with HCC 2998 it was > 100 µM (inactive); in the assay on HOP-92, 92 µM (inactive). Moreover, the GI50 in the assay on IGROV-1 is > 100 µM (inactive); in the assay with K562 it was 61.1 µM (inactive); with OVCAR-4, > 100 µM (inactive); in the assay on RPMI-8226, > 100 µM (inactive); in the assay on RXF 393, > 100 µM (inactive); with SK-OV-3, > 100 µM (inactive). The GI50 in the assay with SR is 49.2 µM (inactive); in the assay with TK-10 it was 51.8 µM (inactive); in the assay on U-251, > 100 µM (inactive); in the assay on UACC-257 it was > 100 µM (inactive); with UO-31, 82.4 µM (inactive).

Turning to `Cc1ccc(S(=O)(=O)C2=c3nc4ccccc4cc3=C3C(=O)c4ccccc4C(=O)C32)cc1` (stereo unspecified), the GI50 with A549, in the assay on ACHN, with CCRF-CEM, in the assay with EKVX, in the assay on HCC 2998 and in the assay with HOP-92 was > 100 µM (inactive) each time. In addition, the GI50 in the assay with IGROV-1 is > 100 µM (inactive); with K562 it was > 100 µM (inactive); in the assay with OVCAR-4, > 100 µM (inactive); in the assay with RPMI-8226 it was > 100 µM (inactive); with SK-OV-3, 0.394 µM (active); in the assay with SR it was > 100 µM (inactive). In addition, the GI50 in the assay with TK-10, with U-251, in the assay on UACC-257 and in the assay with UO-31 was > 100 µM (inactive) in each case.

Consider `C=CCC1C(=O)C(C(=O)OC)N2CCc3c([nH]c4ccccc34)C12` (stereo unspecified), for which the GI50 was > 100 µM (inactive) with A549; 95.5 µM (inactive) with CCRF-CEM; > 100 µM (inactive) with EKVX; > 100 µM (inactive) in the assay on HCC 2998; 57.4 µM (inactive) in the assay with HOP-92; > 100 µM (inactive) in the assay with IGROV-1. Also, the GI50 was > 100 µM (inactive) with K562; > 100 µM (inactive) in the assay on OVCAR-4; 59.2 µM (inactive) with RPMI-8226; > 100 µM (inactive) in the assay on RXF 393; > 100 µM (inactive) with SK-OV-3; 61.1 µM (inactive) with SR. Besides, the GI50 in the assay with TK-10, in the assay with U-251 and in the assay on UO-31 was > 100 µM (inactive) throughout.

`CC(=O)Oc1c(-c2ccccc2)[nH]c2cc([N+](=O)[O-])c(/C(Cl)=C/c3ccccc3)cc12`: the GI50 with A549 is 6.15 µM (inactive); with ACHN, 5.4 µM (inactive); in the assay with CCRF-CEM, 3.61 µM (inactive); in the assay with EKVX it was 8.53 µM (inactive); with HCC 2998, 4.6 µM (inactive); in the assay with HOP-92, 3.65 µM (inactive). The GI50 in the assay on IGROV-1 was 9.46 µM (inactive); with K562, 3.82 µM (inactive); with OVCAR-4, 5.42 µM (inactive); in the assay with RPMI-8226, 3.08 µM (inactive); with SK-OV-3, 26.9 µM (inactive); in the assay with SR it was 3.57 µM (inactive). For the same molecule, the GI50 is 19.8 µM (inactive) in the assay on TK-10, 4.52 µM (inactive) with U-251, 5.77 µM (inactive) in the assay with UACC-257 and 8 µM (inactive) in the assay on UO-31.

Take `O=C(CC/C(CC(=O)c1ccc(Cl)cc1)=N/O)Nc1ccc(Cl)c(Cl)c1`: the GI50 in the assay with A549 was > 100 µM (inactive); in the assay with ACHN, 31.8 µM (inactive); with CCRF-CEM, > 100 µM (inactive); in the assay with EKVX it was 10.3 µM (inactive); in the assay on HOP-92, 82.4 µM (inactive); in the assay on IGROV-1, 47.6 µM (inactive). For the same molecule, the GI50 in the assay with K562 is 50.4 µM (inactive); in the assay on OVCAR-4, 43.4 µM (inactive); in the assay on RPMI-8226, 76.9 µM (inactive); in the assay on SK-OV-3 it was > 100 µM (inactive); in the assay on SR, 89.5 µM (inactive); in the assay with TK-10, > 100 µM (inactive). Besides, the GI50 is > 100 µM (inactive) in the assay with U-251, > 100 µM (inactive) with UACC-257 and 98.4 µM (inactive) in the assay with UO-31.

With `Nc1nc(N)c(CCCCc2ccccc2)c(/C=C/c2ccc([N+](=O)[O-])cc2)n1`, the GI50 is 0.388 µM (active) in the assay with A549; 3.4 µM (inactive) in the assay on ACHN; 1.69 µM (inactive) in the assay with CCRF-CEM; 4.44 µM (inactive) in the assay with EKVX; 2.65 µM (inactive) in the assay on HCC 2998; 0.0182 µM (active) with HOP-92. Moreover, the GI50 in the assay with IGROV-1 is 2.8 µM (inactive); with K562, 0.348 µM (active); in the assay with OVCAR-4 it was 3.94 µM (inactive); in the assay on RPMI-8226, 3.31 µM (inactive); in the assay on SK-OV-3, 6.67 µM (inactive); in the assay on SR, 1.56 µM (inactive). Besides, the GI50 in the assay on TK-10 was 1.8 µM (inactive); in the assay on U-251 it was 2.13 µM (inactive); with UACC-257, 2.51 µM (inactive); in the assay on UO-31, 1.91 µM (inactive).

As for `COc1ccc(/C=C/[N+](=O)[O-])cc1`, the GI50 in the assay with A549 is 2.51 µM (inactive); in the assay with ACHN it was 7.48 µM (inactive); in the assay with EKVX, 13.2 µM (inactive); with HCC 2998 it was < 0.01 µM (active); in the assay with IGROV-1, 3.57 µM (inactive); with K562, 3.53 µM (inactive). In addition, the GI50 in the assay on MCF7 is 2.02 µM (inactive); in the assay on OVCAR-4, 16.7 µM (inactive); with SR, 2.03 µM (inactive); with TK-10, 13 µM (inactive); in the assay with U-251, 4.03 µM (inactive); with UACC-257, 2.94 µM (inactive). The GI50 with UO-31 is 11.3 µM (inactive).

Take `CC1=C2CC[C@@]3(C)C(=CCC3O)C2(C)CCC1=O` (stereo partly specified): the GI50 with A549 was > 100 µM (inactive); with ACHN it was > 100 µM (inactive); in the assay with CCRF-CEM it was > 100 µM (inactive); with EKVX, 27.1 µM (inactive); in the assay with HCC 2998 it was > 100 µM (inactive); in the assay with HOP-92 it was > 100 µM (inactive). The GI50 with IGROV-1, in the assay with OVCAR-4, in the assay on RPMI-8226, with RXF 393, in the assay on SK-OV-3 and in the assay with SR was > 100 µM (inactive) in each case. Also, the GI50 with TK-10, in the assay with U-251, in the assay with UACC-257 and in the assay on UO-31 was > 100 µM (inactive) throughout.

Turning to `CC1CC2CC(=O)CC3(C1)C2CCCN3CCCO` (stereo unspecified), the GI50 with A549, in the assay on ACHN, in the assay on CCRF-CEM, in the assay on EKVX, in the assay on HOP-92 and in the assay on IGROV-1 was > 100 µM (inactive) each time. In addition, the GI50 in the assay with K562, with OVCAR-4, with RPMI-8226, with RXF 393, with SK-OV-3 and with SR was > 100 µM (inactive) each time. Further, the GI50 in the assay on TK-10, with U-251, in the assay on UACC-257 and with UO-31 was > 100 µM (inactive) throughout.
